Data reported in patent US20250382332A1, “NOVEL ALPHA-FACTOR BASED PEPTIDES WITH ANTIFUNGAL ACTIVITY” (INVAIO SCIENCES, INC., priority 2024, published 2025).
Peptide text beside a SMILES is read from it.

Test system: Botrytis cinerea (B05.10)
Test: Resazurin antifungal assay of 180 alpha-factor peptide variants towards Botrytis (Example 2)
Format: cell-based
Conditions: % inhibition of fungal growth, Botrytis conidia, resazurin; for Inhibition at 10 μM: peptide 10 μM; for Inhibition at 20 μM: peptide 20 μM; for Inhibition at 50 μM: peptide 50 μM; for Inhibition at 100 μM: peptide 100 μM; for Inhibition at 15 μM: peptide 15 μM
Outline: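 Resazurin viability read-out (570/620 nm fluorescence) after a 24 h, 20° C incubation of B05.10 conidia, 5000 per well, with peptide at final 10-100 μM. Growth inhibition (%) was derived by subtracting conidia-only fluorescence; four replicates per treatment.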

| Compound | Inhibition at 10 μM [%] | Inhibition at 20 μM [%] | Inhibition at 50 μM [%] | Inhibition at 100 μM [%] | Inhibition at 15 μM [%] |
| --- | --- | --- | --- | --- | --- |
| CC[C@H](C)[C@H](NC(=O)[C@H](CCC(N)=O)NC(=O)[C@H](CC(C)C)NC(=O)[C@H](Cc1ccccc1)NC(=O)[C@H](Cc1c[nH]cn1)NC(=O)[C@@H](N)Cc1c[nH]c2ccccc12)C(=O)N[C@@H](CCCCN)C(=O)N1CCC[C@H]1C(=O)NCC(=O)N[C@@H](CCC(N)=O)C(=O)NCC(=O)N[C@@H](CCSC)C(=O)N[C@@H](Cc1ccc(O)cc1)C(=O)O [compound 90] (H-WHFLQIKPGQGMY-OH; N-terminus and C-terminus assumed) | <90 | <90 | 99.27 | 100 |  |
| CSCC[C@H](NC(=O)[C@@H]1CCCN1C(=O)[C@H](CCC(N)=O)NC(=O)CNC(=O)[C@H](CC(N)=O)NC(=O)[C@H](CCCCN)NC(=O)[C@H](CC(C)C)NC(=O)[C@H](CCC(N)=O)NC(=O)[C@@H](NC(=O)[C@H](Cc1c[nH]c2ccccc12)NC(=O)[C@H](Cc1c[nH]cn1)NC(=O)[C@@H]1CCCN1)C(C)C)C(=O)N[C@@H](Cc1ccc(O)cc1)C(=O)O [compound 173] (H-PHWVQLKNGQPMY-OH; N-terminus and C-terminus assumed) |  |  | <90 | <90 |  |
| CC[C@H](C)[C@H](NC(=O)[C@H](CCCCN)NC(=O)[C@H](CC(C)C)NC(=O)[C@H](Cc1ccccc1)NC(=O)[C@H](Cc1c[nH]cn1)NC(=O)[C@@H](N)CCCCN)C(=O)N[C@@H](CCCCN)C(=O)N1CCC[C@H]1C(=O)NCC(=O)N[C@@H](CCC(N)=O)C(=O)N1CCC[C@H]1C(=O)N[C@@H](CCSC)C(=O)N[C@@H](Cc1ccc(O)cc1)C(=O)O [compound 86] (H-KHFLKIKPGQPMY-OH; N-terminus and C-terminus assumed) | <90 | 99.49 | 100 | 100 | <90 |
| CC[C@H](C)[C@H](NC(=O)[C@H](Cc1c[nH]cn1)NC(=O)[C@@H](N)Cc1c[nH]c2ccccc12)C(=O)N[C@@H](CC(C)C)C(=O)N[C@@H](CCCNC(=N)N)C(=O)N[C@@H](Cc1ccccc1)C(=O)N[C@@H](CCCCN)C(=O)N[C@@H](CC(N)=O)C(=O)NCC(=O)N[C@@H](CCSC)C(=O)N1CCC[C@H]1C(=O)N[C@@H](CCSC)C(=O)N[C@@H](Cc1ccc(O)cc1)C(=O)O [compound 105] (H-WHILRFKNGMPMY-OH; N-terminus and C-terminus assumed) | <90 | <90 | <90 | 100 |  |
| CSCC[C@H](NC(=O)CNC(=O)[C@H](CCC(N)=O)NC(=O)CNC(=O)[C@@H](NC(=O)[C@H](CCCCN)NC(=O)[C@H](CC(C)C)NC(=O)[C@H](CC(N)=O)NC(=O)[C@@H](NC(=O)[C@H](Cc1c[nH]c2ccccc12)NC(=O)[C@H](Cc1c[nH]cn1)NC(=O)[C@@H]1CCCN1)C(C)C)[C@@H](C)O)C(=O)N[C@@H](Cc1ccc(O)cc1)C(=O)O [compound 44] (H-PHWVNLKTGQGMY-OH; N-terminus and C-terminus assumed) |  |  | <90 | <90 |  |
| CSCC[C@H](NC(=O)[C@H](CO)NC(=O)[C@H](CO)NC(=O)CNC(=O)[C@@H]1CCCN1C(=O)[C@H](CCCCN)NC(=O)[C@H](CC(C)C)NC(=O)[C@H](CCC(N)=O)NC(=O)[C@H](CC(C)C)NC(=O)[C@@H](NC(=O)[C@H](CCCNC(=N)N)NC(=O)[C@@H](N)Cc1c[nH]c2ccccc12)C(C)C)C(=O)N[C@@H](Cc1ccc(O)cc1)C(=O)O [compound 50] (H-WRVLQLKPGSSMY-OH; N-terminus and C-terminus assumed) |  |  | <90 | <90 |  |
| CSCC[C@H](NC(=O)CNC(=O)[C@H](CO)NC(=O)CNC(=O)[C@@H]1CCCN1C(=O)[C@H](CCCCN)NC(=O)[C@H](Cc1ccccc1)NC(=O)[C@H](CCC(N)=O)NC(=O)[C@H](CC(C)C)NC(=O)[C@H](Cc1c[nH]c2ccccc12)NC(=O)[C@H](Cc1c[nH]cn1)NC(=O)[C@@H](N)CCCCN)C(=O)N[C@@H](Cc1ccc(O)cc1)C(=O)O [compound 64] (H-KHWLQFKPGSGMY-OH; N-terminus and C-terminus assumed) | <90 | 98.09 | 100 | 100 | <90 |
| CC[C@H](C)[C@H](NC(=O)[C@H](CCC(N)=O)NC(=O)[C@H](CC(C)C)NC(=O)[C@H](Cc1ccccc1)NC(=O)[C@H](Cc1c[nH]cn1)NC(=O)[C@@H](N)Cc1c[nH]c2ccccc12)C(=O)N[C@@H](CCCCN)C(=O)N1CCC[C@H]1C(=O)NCC(=O)N[C@@H](CCC(=O)O)C(=O)N1CCC[C@H]1C(=O)N[C@@H](CCSC)C(=O)N[C@@H](Cc1ccc(O)cc1)C(=O)O [compound 150] (H-WHFLQIKPGEPMY-OH; N-terminus and C-terminus assumed) |  |  | <90 | <90 |  |
| CSCC[C@H](NC(=O)[C@@H]1CCCN1C(=O)[C@H](CCC(N)=O)NC(=O)CNC(=O)[C@@H]1CCCN1C(=O)[C@H](CCCCN)NC(=O)[C@H](Cc1ccccc1)NC(=O)[C@H](CO)NC(=O)[C@H](CC(C)C)NC(=O)[C@H](Cc1c[nH]c2ccccc12)NC(=O)[C@H](Cc1c[nH]cn1)NC(=O)[C@@H](N)CCCCN)C(=O)N[C@@H](Cc1ccc(O)cc1)C(=O)O [compound 20] (H-KHWLSFKPGQPMY-OH; N-terminus and C-terminus assumed) | <90 | <90 | 100 | 100 |  |
| CC[C@H](C)[C@H](NC(=O)[C@H](Cc1c[nH]c2ccccc12)NC(=O)[C@H](Cc1c[nH]cn1)NC(=O)[C@@H]1CCCN1)C(=O)N[C@@H](CO)C(=O)N[C@@H](CC(C)C)C(=O)N[C@@H](CCCCN)C(=O)N[C@@H](CCCCN)C(=O)NCC(=O)N[C@@H](CCC(N)=O)C(=O)N1CCC[C@H]1C(=O)N[C@@H](CCSC)C(=O)N[C@@H](Cc1ccc(O)cc1)C(=O)O [compound 66] (H-PHWISLKKGQPMY-OH; N-terminus and C-terminus assumed) | <90 | 96.17 | 100 | 100 | <90 |
| CSCC[C@H](NC(=O)[C@H](Cc1c[nH]cn1)NC(=O)[C@@H](N)Cc1c[nH]c2ccccc12)C(=O)N[C@@H](CC(C)C)C(=O)N[C@@H](CC(N)=O)C(=O)N[C@@H](Cc1ccccc1)C(=O)N[C@@H](CCCCN)C(=O)N1CCC[C@H]1C(=O)NCC(=O)N[C@@H](CCC(N)=O)C(=O)N1CCC[C@H]1C(=O)N[C@@H](CCSC)C(=O)N[C@@H](Cc1ccc(O)cc1)C(=O)O [compound 118] (H-WHMLNFKPGQPMY-OH; N-terminus and C-terminus assumed) |  |  | <90 | <90 |  |
| CSCC[C@H](NC(=O)[C@@H]1CCCN1C(=O)[C@H](CCC(N)=O)NC(=O)CNC(=O)[C@@H]1CCCN1C(=O)[C@H](CC(=O)O)NC(=O)[C@H](Cc1ccccc1)NC(=O)[C@H](CCC(=O)O)NC(=O)[C@@H](NC(=O)[C@H](Cc1c[nH]c2ccccc12)NC(=O)[C@H](Cc1c[nH]cn1)NC(=O)[C@@H]1CCCN1)C(C)C)C(=O)N[C@@H](Cc1ccc(O)cc1)C(=O)O [compound 128] (H-PHWVEFDPGQPMY-OH; N-terminus and C-terminus assumed) |  |  | <90 | <90 |  |
| CSCC[C@H](NC(=O)[C@@H]1CCCN1C(=O)[C@H](CCC(N)=O)NC(=O)CNC(=O)[C@@H](NC(=O)[C@H](CCCCN)NC(=O)[C@H](Cc1ccccc1)NC(=O)[C@H](CCC(N)=O)NC(=O)[C@H](CC(C)C)NC(=O)[C@H](CC(C)C)NC(=O)[C@H](Cc1c[nH]cn1)NC(=O)[C@@H](N)Cc1c[nH]c2ccccc12)C(C)C)C(=O)N[C@@H](Cc1ccc(O)cc1)C(=O)O [compound 25] (H-WHLLQFKVGQPMY-OH; N-terminus and C-terminus assumed) | <90 | <90 | 92.63 | 100 |  |
| CSCC[C@H](NC(=O)[C@@H]1CCCN1C(=O)[C@H](CCC(N)=O)NC(=O)CNC(=O)[C@@H]1CCCN1C(=O)[C@H](CCCCN)NC(=O)[C@H](Cc1ccccc1)NC(=O)[C@H](CC(N)=O)NC(=O)[C@H](CC(C)C)NC(=O)[C@H](CC(C)C)NC(=O)[C@H](Cc1c[nH]cn1)NC(=O)[C@@H]1CCCN1)C(=O)N[C@@H](Cc1ccc(O)cc1)C(=O)O [compound 41] (H-PHLLNFKPGQPMY-OH; N-terminus and C-terminus assumed) |  |  | <90 | <90 |  |
| CSCC[C@H](NC(=O)[C@@H]1CCCN1C(=O)[C@H](CCC(=O)O)NC(=O)CNC(=O)[C@@H]1CCCN1C(=O)[C@H](CCCCN)NC(=O)[C@H](CC(C)C)NC(=O)[C@H](CC(N)=O)NC(=O)[C@H](CC(C)C)NC(=O)[C@H](Cc1c[nH]c2ccccc12)NC(=O)[C@H](Cc1c[nH]cn1)NC(=O)[C@@H]1CCCN1)C(=O)N[C@@H](Cc1ccc(O)cc1)C(=O)O [compound 158] (H-PHWLNLKPGEPMY-OH; N-terminus and C-terminus assumed) |  |  | <90 | <90 |  |
| CSCC[C@H](NC(=O)[C@@H]1CCCN1C(=O)[C@H](CCC(N)=O)NC(=O)CNC(=O)[C@H](CC(N)=O)NC(=O)[C@H](CCCCN)NC(=O)[C@H](CC(C)C)NC(=O)[C@H](CCCCN)NC(=O)[C@H](CC(C)C)NC(=O)[C@H](Cc1c[nH]c2ccccc12)NC(=O)[C@H](CCC(N)=O)NC(=O)[C@@H](N)CCCCN)C(=O)N[C@@H](Cc1ccc(O)cc1)C(=O)O [compound 91] (H-KQWLKLKNGQPMY-OH; N-terminus and C-terminus assumed) | <90 | <90 | 98.66 | 100 |  |
